One test concerns the target MET kinase (Homo sapiens (Human), UniProt P08581). Description: Kinase inhibitory activity, MET. The test is classed as biochemical. As to conditions: 33P-ATP filter assay, about 40 minutes at room temperature.
For test [1], the system named is Ba/F3 cell line expressing EGFR L858R/T790M/C797S. Description: Inhibitory effect on cancer cell growth (MTT), Ba/F3 L858R/T790M/C797S. Type of test: cell-based, Murine. As to conditions: read-out: L858R/T790M/C797S (IC50). How it is done:
(§1) The inhibitory effect on the growth of a C797S-expressed triple mutant Ba/F3 cancer cell line was measured for the compounds obtained in the examples above. The kinase assay and anticancer efficacy activity using a Ba/F3 stable cell line were measured by the following method:
(§2) 1. […] All constructs were retroviral vectors and finally completed viral particles for infection.
(§3) 2. Construction of Ba/F3 stable cell lines: Murine lymphoid cells undergo IL-3 dependent growth. […] Briefly, each construct was infected into Ba/F3 cell lines, and after 48 hours, IL-3 was removed with media exchange and cells were cultured. However, puromycin selection was performed for wild type EGFR.
(§4) 3. Identification of Ba/F3 stable cell lines: All stable cell lines were subjected to western blotting to confirm the expression of each construct and EGFR activity (EGFR wild type and L858R were omitted).
(§5) 5. Anticancer effect verification by MTT assay: 2×10^3 cells were seeded in a 96-well plate. After 24 hours, each of the drugs was treated in a dose-dependent manner, incubated for 72 hours, reacted with 15 μL of MTT reagent for 4 hours, and then 100 μL of 10% SDS was added thereto and incubated for 24 hours. […] MTT results were analyzed by measuring IC50 values through prism software.

The test system of test [2] is Ba/F3 cell line expressing EGFR DEL19/T790M/C797S. Description: Inhibitory effect on cancer cell growth (MTT), Ba/F3 DEL19/T790M/C797S. As to conditions: for IC50: read-out: DEL19/T790M/C797S (IC50); for inhibitory activity on C797S mutant EGFR-expressed cancer cell lines, comparison in words: both Ba/F3 triple mutant lines of Table 2. Type of test: cell-based, Murine. How it is done:
as §1, §2, §3, §4, §5

Setting [3] is: Mus musculus, BaF3, Ba/F3 stable cell line, MTT, 72 hours, GI50.
The mark [4] stands for this setting: Ba/F3 stable cell line, MTT, 72 hours, GI50.

Five compounds from patent publication US11248003B2, “Pyrimidine derivative having effect of inhibiting cancer cell growth and pharmaceutical composition containing same” (ONCOBIX CO., LTD., priority 2017, dated 2022) can be followed below.

Where two headings read alike, the source gives them in different places.

Sequence of MET kinase (P08581 25-1390): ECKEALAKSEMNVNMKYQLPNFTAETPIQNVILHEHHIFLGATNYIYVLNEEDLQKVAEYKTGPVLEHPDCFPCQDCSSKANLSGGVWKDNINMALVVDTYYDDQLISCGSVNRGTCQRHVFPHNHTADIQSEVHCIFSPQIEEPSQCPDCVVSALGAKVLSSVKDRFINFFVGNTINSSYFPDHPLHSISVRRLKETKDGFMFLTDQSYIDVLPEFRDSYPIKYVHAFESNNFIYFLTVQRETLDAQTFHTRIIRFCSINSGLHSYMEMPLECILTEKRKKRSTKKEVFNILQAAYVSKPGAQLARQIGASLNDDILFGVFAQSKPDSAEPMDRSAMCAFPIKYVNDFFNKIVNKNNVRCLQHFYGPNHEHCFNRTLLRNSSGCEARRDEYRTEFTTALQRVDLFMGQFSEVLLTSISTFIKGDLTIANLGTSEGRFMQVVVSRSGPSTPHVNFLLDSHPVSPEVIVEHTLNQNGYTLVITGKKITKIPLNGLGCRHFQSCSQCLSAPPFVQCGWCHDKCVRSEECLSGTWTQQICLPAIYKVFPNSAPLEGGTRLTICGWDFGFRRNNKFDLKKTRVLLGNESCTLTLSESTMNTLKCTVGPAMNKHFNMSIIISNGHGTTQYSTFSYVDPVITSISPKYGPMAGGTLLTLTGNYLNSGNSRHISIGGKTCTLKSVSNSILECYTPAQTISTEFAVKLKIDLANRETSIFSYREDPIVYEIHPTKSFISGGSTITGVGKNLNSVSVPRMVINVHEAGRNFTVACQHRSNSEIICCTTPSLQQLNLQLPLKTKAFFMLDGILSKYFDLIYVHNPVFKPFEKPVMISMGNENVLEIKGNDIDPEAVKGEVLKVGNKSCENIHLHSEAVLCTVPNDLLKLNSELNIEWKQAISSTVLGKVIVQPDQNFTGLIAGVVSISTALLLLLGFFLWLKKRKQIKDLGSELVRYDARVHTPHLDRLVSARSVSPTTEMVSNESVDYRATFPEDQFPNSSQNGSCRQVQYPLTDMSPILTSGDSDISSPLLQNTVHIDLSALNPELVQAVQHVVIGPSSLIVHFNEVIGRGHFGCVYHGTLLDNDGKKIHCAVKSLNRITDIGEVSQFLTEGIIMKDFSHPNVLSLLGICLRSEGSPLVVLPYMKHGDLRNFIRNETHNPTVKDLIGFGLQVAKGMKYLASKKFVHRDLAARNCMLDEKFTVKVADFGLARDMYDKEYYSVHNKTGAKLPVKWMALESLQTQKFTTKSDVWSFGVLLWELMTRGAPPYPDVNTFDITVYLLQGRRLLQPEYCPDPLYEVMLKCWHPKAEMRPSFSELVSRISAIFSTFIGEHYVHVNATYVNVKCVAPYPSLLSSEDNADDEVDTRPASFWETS
Method for MET kinase: The kinase inhibitory activity was measured by the following method:
The compound to be evaluated (DMSO solution) and Mg/ATP were added to proceed the reaction.
After about 40 minutes at room temperature, the reaction was stopped by the addition of 10 μL of 0.5% phosphoric acid.
10 μL of 0.5% reaction solution was spotted onto a P30 filtermat.
Washed 4 times for about 4 minutes in 0.425% phosphoric acid. Washed once in methanol, and then dried and analyzed by scintillation counting to measure IC50 value.

In the case of `COc1cc(N2CCC(N3CCN(C)CC3)CC2)ccc1Nc1ncc(Cl)c(Nc2ccccc2P(C)(C)=O)n1` [Brigatinib], the IC50 was 70 nM on MET kinase; 860 nM in test [1] (Mus musculus, BaF3, 72 h); 560 nM in test [2] (Mus musculus, BaF3, 72 h). The “inhibitory activity on C797S mutant EGFR-expressed cancer cell lines, comparison in words” value in test [2] was “very less active”.
Take `COc1cc(N2CCC(N3CCN(C)CC3)CC2)ccc1Nc1ncc(Cl)c(Nc2ccccc2N(C)S(C)(=O)=O)n1` [Example 1, N-(2-((5-chloro-2-((2-methoxy-4-(4-(4-methylpiperazin-1-yl)piperidin-1-yl)phenyl)amino)pyrimidin-4-yl)amino)phenyl)-N-methylmethanesulfonamide]: the IC50 on MET kinase amounted to 1 nM; in test [1] (setting [3]) it was 160 nM; in test [2] (setting [3]), 210 nM.
`COc1cc(N2CCC(N3CCN(C)CC3)CC2)ccc1Nc1ncc(Cl)c(Nc2cc(F)ccc2N(C)S(C)(=O)=O)n1` [Example 2, N-(2-((5-chloro-2-((2-methoxy-4-(4-(4-methylpiperazin-1-yl)piperidin-1-yl)phenyl)amino)pyrimidin-4-yl)amino)-4-fluorophenyl)-N-methylmethanesulfonamide]: the IC50 in test [1] (setting [3]) came to 533 nM; in test [2] (setting [3]), 222 nM.
In the case of `COc1cc(N2CCC(N(C)C)CC2)ccc1Nc1ncc(Cl)c(Nc2ccccc2N(C)S(C)(=O)=O)n1` [Example 3, N-(2-((5-chloro-2-((4-(4-(dimethylamino)piperidin-1-yl)-2-methoxyphenyl)amino)pyrimidin-4-yl)amino)phenyl)-N-methylmethanesulfonamide], the IC50 turned out to be 531 nM in test [1] (setting [3]) and 323 nM in test [2] (setting [3]).
As for `COc1cc(C2CCNCC2)ccc1Nc1ncc(Cl)c(Nc2ccccc2NS(C)(=O)=O)n1` [TRE-069], the IC50 against MET kinase came to 120 nM; in test [1] (setting [4]) it was 4000 nM; in test [2] (setting [4]), 5000 nM. For the same compound, the “inhibitory activity on C797S mutant EGFR-expressed cancer cell lines, comparison in words” value in test [2] is recorded as “very less active”.
